Test results from US10239880B2, “Cyclopenta[d]pyrimidines and substituted cyclopenta[d]pyrimidines as antitubulin and microtubule targeting agents, monocyclic pyrimidines as tubulin inhibitors, and pyrrolopyrimidines as targeted antifolates and tubulin and multiple receptor tyrosine kinase inhibition and antitumor agents” (Duquesne University of the Holy Spirit, priority 2015, dated 2019).
Read-outs that look alike come from different tables or passages of the source. One block for each compound: values may come before it.

Columns and labels:
Parental SK-OV-3 = test: Antiproliferative activity, parental SK-OV-3; format: cell-based; details: Homo sapiens, Table 6, read-out: IC50 ± SD Parental SK-OV-3
[1] = test system: Pgp expressing SK-OV-3 MDR1-6-6; test: Antiproliferative activity, Pgp expressing SK-OV-3 MDR1-6-6; format: cell-based; details: Homo sapiens, SK-OV-3; Table 6; read-out: IC50 ± SD Pgp expressing SK-OV-3 MDR1-6-6
Parental HeLa = test: Antiproliferative activity, parental HeLa; format: cell-based; details: Homo sapiens, Table 7, read-out: IC50 ± SD Parental HeLa
Excerpt: (§1) Another clinically relevant drug resistance mechanism of tubulin-targeting agents is the overexpression of the βIII isotype of tubulin.

[2] = test system: β-III overexpressing HeLa; test: Antiproliferative activity, β-III overexpressing HeLa; format: cell-based; details: for IC50: Homo sapiens, HeLa, Table 7, read-out: IC50 ± SD β-III overexpressing HeLa
Excerpt: as §1

A-10 cells = test: Microtubule depolymerization, cell-based phenotypic assay in A-10 cells
KB (RFC/FRα/PCFT) = test: Growth inhibition of KB tumor cells; format: cell-based, human
Method: Cell proliferation was assayed with CellTiter-Blue™ with a fluorescent plate reader.

PC43-10 (RFC) = test: Proliferation inhibition, RFC-expressing PC43-10 cells; format: cell-based, Chinese hamster; details: Table 11
Excerpt: (§2) AGF215, AGF234 and AGF263 were compared to AGF23 as inhibitors of proliferation of engineered Chinese hamster ovary (CHO) cells expressing human PCFT (R2/PCFT4), FRα (RT16), or RFC (PC43-10).

RT16 (FRα) = test: Proliferation inhibition, FRα-expressing RT16 cells; format: cell-based, Chinese hamster
Excerpt: as §2

MDA-MB-435 cancer cells = test: Antiproliferative effect in MDA-MB-435 cancer cells (SRB assay); format: cell-based; details: Table 3a, read-out: IC50 ± SD in MDA-435 Cells
VEGFR2 = VEGFR2 (Homo sapiens, UniProt P35968); test: Kinase inhibition, whole-cell assay, VEGFR2 (Flk-1); format: cell-based; details: Table 3b; unit inferred
Chain of VEGFR2 (P35968 20-1356, species assumed): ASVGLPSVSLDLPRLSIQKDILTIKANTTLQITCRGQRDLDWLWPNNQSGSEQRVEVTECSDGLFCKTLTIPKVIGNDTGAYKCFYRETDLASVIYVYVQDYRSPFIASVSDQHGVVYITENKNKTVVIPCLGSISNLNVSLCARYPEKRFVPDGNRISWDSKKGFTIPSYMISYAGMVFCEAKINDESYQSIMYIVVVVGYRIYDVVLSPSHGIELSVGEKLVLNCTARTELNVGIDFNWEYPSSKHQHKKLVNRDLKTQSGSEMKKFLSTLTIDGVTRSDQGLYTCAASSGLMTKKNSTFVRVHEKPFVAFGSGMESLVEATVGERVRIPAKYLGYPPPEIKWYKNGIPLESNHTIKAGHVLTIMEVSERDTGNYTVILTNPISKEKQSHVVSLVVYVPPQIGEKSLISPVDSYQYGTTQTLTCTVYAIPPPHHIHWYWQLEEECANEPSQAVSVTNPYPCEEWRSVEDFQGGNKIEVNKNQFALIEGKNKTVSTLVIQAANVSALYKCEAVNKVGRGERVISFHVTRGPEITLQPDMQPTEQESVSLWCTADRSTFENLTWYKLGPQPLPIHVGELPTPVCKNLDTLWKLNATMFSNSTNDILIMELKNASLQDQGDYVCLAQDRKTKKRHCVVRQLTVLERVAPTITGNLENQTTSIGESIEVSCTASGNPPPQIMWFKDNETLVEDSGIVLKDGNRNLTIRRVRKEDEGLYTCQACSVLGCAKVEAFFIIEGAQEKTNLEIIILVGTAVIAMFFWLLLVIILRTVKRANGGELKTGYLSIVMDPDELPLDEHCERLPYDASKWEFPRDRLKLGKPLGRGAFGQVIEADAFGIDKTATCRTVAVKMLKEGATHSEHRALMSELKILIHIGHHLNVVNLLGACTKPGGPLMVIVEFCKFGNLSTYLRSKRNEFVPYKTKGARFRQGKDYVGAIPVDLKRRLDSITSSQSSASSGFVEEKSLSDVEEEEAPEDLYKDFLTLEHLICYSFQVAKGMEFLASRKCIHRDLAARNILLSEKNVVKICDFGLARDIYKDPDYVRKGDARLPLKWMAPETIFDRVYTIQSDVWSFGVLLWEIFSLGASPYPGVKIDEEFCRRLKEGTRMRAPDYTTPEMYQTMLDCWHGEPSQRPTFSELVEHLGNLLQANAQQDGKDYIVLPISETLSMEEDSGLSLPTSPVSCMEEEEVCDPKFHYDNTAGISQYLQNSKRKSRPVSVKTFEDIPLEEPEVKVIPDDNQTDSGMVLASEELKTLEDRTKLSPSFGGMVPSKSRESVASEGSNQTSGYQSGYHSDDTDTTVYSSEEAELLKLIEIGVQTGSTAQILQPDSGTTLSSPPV

PDGFR-β = PDGFR-β (Homo sapiens, UniProt P09619); test: Kinase inhibition, whole-cell assay, PDGFR-β; format: cell-based; details: Table 3b; unit inferred; read-out: PDGFR kinase inhibition
Chain of PDGFR-β (P09619 33-1106, species assumed): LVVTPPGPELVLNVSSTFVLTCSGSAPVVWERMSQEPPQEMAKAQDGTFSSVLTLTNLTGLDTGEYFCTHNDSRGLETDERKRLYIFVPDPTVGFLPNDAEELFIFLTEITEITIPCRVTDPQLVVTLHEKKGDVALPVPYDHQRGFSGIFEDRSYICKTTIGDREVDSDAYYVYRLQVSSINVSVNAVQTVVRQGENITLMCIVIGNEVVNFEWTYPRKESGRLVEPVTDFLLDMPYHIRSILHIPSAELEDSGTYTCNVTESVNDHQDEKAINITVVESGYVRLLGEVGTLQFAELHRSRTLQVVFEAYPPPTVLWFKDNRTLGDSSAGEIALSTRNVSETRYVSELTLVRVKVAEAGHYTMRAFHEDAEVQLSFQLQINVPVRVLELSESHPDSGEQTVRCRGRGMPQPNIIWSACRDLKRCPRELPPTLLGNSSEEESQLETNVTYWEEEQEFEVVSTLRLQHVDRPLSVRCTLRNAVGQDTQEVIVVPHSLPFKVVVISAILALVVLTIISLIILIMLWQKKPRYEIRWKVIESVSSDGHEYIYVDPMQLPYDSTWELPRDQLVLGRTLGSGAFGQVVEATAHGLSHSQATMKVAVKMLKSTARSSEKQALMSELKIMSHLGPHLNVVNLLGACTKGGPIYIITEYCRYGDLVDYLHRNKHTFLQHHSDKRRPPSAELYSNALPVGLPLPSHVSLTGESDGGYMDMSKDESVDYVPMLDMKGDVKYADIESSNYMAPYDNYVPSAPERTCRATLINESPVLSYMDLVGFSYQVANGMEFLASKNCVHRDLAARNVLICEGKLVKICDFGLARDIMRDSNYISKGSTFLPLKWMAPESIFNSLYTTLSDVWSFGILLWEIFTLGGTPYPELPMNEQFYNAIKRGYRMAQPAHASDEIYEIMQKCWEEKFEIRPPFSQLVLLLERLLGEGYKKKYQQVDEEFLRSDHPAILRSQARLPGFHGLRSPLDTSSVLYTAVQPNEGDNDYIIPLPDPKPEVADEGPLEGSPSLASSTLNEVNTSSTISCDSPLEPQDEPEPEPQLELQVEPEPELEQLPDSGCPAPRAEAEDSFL

EGFR = EGFR (Homo sapiens, UniProt P00533); test: Kinase inhibition, whole-cell assay, EGFR; format: cell-based; details: Table 3b; unit inferred; read-out: EGFR kinase inhibition
Chain of EGFR (P00533 25-1210, species assumed): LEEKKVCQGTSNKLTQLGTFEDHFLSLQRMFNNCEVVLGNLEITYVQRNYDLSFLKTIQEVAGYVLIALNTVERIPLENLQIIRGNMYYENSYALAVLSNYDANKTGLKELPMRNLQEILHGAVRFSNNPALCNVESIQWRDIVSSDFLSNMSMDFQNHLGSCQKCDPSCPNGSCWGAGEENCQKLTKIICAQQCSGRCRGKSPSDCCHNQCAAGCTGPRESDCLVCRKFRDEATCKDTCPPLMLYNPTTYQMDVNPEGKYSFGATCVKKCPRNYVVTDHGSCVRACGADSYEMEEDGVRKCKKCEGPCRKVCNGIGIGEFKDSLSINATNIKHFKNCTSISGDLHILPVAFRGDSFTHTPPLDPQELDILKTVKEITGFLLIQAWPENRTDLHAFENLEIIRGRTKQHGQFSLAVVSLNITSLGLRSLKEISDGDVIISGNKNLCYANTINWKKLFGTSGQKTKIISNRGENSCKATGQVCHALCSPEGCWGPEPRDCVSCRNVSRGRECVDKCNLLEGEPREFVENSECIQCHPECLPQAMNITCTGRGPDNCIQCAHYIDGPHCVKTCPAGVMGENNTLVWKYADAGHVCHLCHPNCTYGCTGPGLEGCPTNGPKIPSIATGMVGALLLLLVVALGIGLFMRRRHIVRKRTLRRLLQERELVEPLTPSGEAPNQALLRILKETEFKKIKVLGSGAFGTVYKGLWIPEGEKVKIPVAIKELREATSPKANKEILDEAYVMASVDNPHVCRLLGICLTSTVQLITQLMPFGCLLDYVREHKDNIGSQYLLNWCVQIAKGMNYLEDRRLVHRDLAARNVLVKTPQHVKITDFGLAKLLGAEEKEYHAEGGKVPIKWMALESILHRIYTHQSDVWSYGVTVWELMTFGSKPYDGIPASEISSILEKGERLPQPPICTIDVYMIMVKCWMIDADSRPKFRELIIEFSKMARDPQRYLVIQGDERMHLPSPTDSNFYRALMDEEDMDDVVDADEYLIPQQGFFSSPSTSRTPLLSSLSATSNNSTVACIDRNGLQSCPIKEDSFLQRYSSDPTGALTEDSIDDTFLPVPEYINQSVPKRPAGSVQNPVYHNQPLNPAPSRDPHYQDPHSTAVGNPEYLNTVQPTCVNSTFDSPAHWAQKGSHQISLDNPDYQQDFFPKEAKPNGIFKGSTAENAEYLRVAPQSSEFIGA

U251 = U251 cytotoxicity; format: cell-based; details: Homo sapiens, U-251; Table 3b; unit inferred
CAM = CAM (gi50); details: Table 3b; unit inferred
A431 = A431 cytotoxicity; details: Homo sapiens, A-431, read-out: A431 cytotoxicity, Table 3b; unit inferred
[3] = Rattus norvegicus, A10, read-out: EC50 in A-10 cells (Concentration that causes 50% tubulin loss in A-10 cells), Table 4, Section II compounds
[4] = Table 3a, unit inferred, read-out: EC50 for Microtubule Depolymerization in A · 10 Cells
[5] = Rattus norvegicus, A10, Table 3a, unit inferred, read-out: EC50 for Microtubule Depolymerization in A · 10 Cells

Compound: Cc1nc2c(c(N(C)c3ccc(N(C)C)cc3)n1)CCC2 [Compound 9]
IC50 (Parental SK-OV-3): 13 ± 1 nM
IC50 [1]: 22.6 ± 2.3 nM
IC50 (Parental HeLa): 11 ± 1 nM
IC50 [2]: 9.8 ± 0.9 nM

Compound: COc1ccc([C@H](C)N(C)c2nc(C)nc3c2CCC3)cc1 [Compound 10]
EC50 (A-10 cells; [3]): > 10000 nM

Compound: COc1ccc([C@@H](C)N(C)c2nc(C)nc3c2CCC3)cc1 [Compound 11]
EC50 (A-10 cells; [3]): > 10000 nM

Compound: Cc1nc2ccc3ccc(CNc4ccc5c(c4)CN([C@@H](CCC(=O)O)C(=O)O)C5=O)cc3c2c(=O)[nH]1 [GW1843U89]
IC50 (KB (RFC/FRα/PCFT); Table 11, read-out: IC50 RFC/FRα/PCFT KB): 5.8 nM
IC50 (KB (RFC/FRα/PCFT); with folic acid (+FA), read-out: IC50 RFC/FRα/PCFT KB (+FA)): 32 nM

Compound: Nc1nc(N)c2nc(CNc3ccc(C(=O)N[C@@H](CCCNC(=O)c4ccccc4C(=O)O)C(=O)O)cc3)cnc2n1 [PT523]
IC50 (PC43-10 (RFC)): 1.28 nM
IC50 (RT16 (FRα); Table 11, read-out: IC50 FRα RT16): 409 nM
IC50 (RT16 (FRα); with folic acid (+FA), read-out: IC50 FRα RT16 (+FA)): > 1000 nM

Compound: CNc1ccc(N(C)c2nc(C)nc3c2CCC3)cc1 [Section II compound 8]
IC50 (Parental SK-OV-3): 36.3 ± 3.3 nM
IC50 [1]: 49.7 ± 7.9 nM
IC50 (Parental HeLa): 31 ± 1.6 nM
IC50 [2]: 19.1 ± 3.9 nM
Rr* ([2]; relative resistance, β-III overexpressing HeLa vs parental HeLa): 0.6

Compound: CSc1ccc(N(C)c2nc(C)nc3ccn(C)c23)cc1 [Table 3a 26]
IC50 (VEGFR2): 544 ± 77.2 nM
IC50 (PDGFR-β): 450 ± 53.1 nM
IC50 (EGFR): 54.8 ± 9.2 nM
IC50 (MDA-MB-435 cancer cells; Homo sapiens, cells that print nM): 6.2 nM
EC50 (A-10 cells; Rattus norvegicus, A10, Table 3a, lines that print nM, read-out: EC50 for Microtubule Depolymerization in A · 10 Cells): 23 nM
IC50 (U251): 35.1 ± 6.3 nM
GI50 (CAM): 363 ± 56.9 nM
IC50 (A431): 18.8 ± 4.1 nM

Second part, led by results:

EC50 (A-10 cells; [3]): 11300 nM
Compound: COc1ccc(CN(C)c2nc(C)nc3c2CCC3)cc1 [Section II compound 12]

IC50 (MDA-MB-435 cancer cells; unit inferred): 2000 nM
EC50 (A-10 cells; [4]): > 10000 nM
Compound: COc1cccc2cc(N(C)c3nc(C)nc4ccn(C)c34)ccc12 [Table 3a 14]

IC50 (MDA-MB-435 cancer cells; unit inferred): 22.6 nM
EC50 (A-10 cells; [4]): 50 nM
Compound: COc1cccc2cc(N(C)c3nc(Cl)nc4ccn(C)c34)ccc12 [Table 3a 15]

IC50 (MDA-MB-435 cancer cells; unit inferred): 13.4 ± 0.5 nM
EC50 (A-10 cells; [4]): 27.5 nM
Compound: COc1ccc(N(C)c2ncnc3ccn(C)c23)cc1 [Table 3a 17]

IC50 (VEGFR2): 12.4 ± 1.2 nM
IC50 (PDGFR-β): 4.2 ± 0.9 nM
IC50 (EGFR): 6.3 ± 0.9 nM
IC50 (MDA-MB-435 cancer cells; Homo sapiens, unit inferred): 1.3 nM
EC50 (A-10 cells; [5]): 1.48 nM
Compound: COc1ccc(N(C)c2nc(Cl)nc3ccn(C)c23)cc1 [Table 3a 19]
IC50 (U251): 3.1 ± 0.4 nM
GI50 (CAM): 9.3 ± 0.91 nM
IC50 (A431): 2.1 ± 0.3 nM

IC50 (VEGFR2): 15.2 ± 2 nM
IC50 (PDGFR-β): 8.4 ± 0.8 nM
IC50 (EGFR): 9 ± 0.9 nM
IC50 (MDA-MB-435 cancer cells; Homo sapiens, unit inferred): 4.1 ± 0.1 nM
EC50 (A-10 cells; [5]): 3.31 nM
Compound: COc1ccc2c(c1)CCCN2c1nc(Cl)nc2ccn(C)c12 [Table 3a 23]
IC50 (U251): 3.8 ± 0.5 nM
GI50 (CAM): 7.6 ± 1 nM
IC50 (A431): 3 ± 0.3 nM

IC50 (VEGFR2): 33.9 ± 3.9 nM
IC50 (PDGFR-β): 10.8 ± 1.6 nM
IC50 (EGFR): 16.4 ± 2.6 nM
IC50 (MDA-MB-435 cancer cells; Homo sapiens, unit inferred): 3.6 ± 0.3 nM
EC50 (A-10 cells; [5]): 2.7 nM
Compound: CSc1ccc(N(C)c2nc(Cl)nc3ccn(C)c23)cc1 [Table 3a 27]
IC50 (U251): 11.3 ± 1.8 nM
GI50 (CAM): 45.2 ± 5.2 nM
IC50 (A431): 8.2 ± 1.3 nM

IC50 (MDA-MB-435 cancer cells; Homo sapiens, unit inferred): 49.3 ± 1.1 nM
EC50 (A-10 cells; [5]): 139 nM
Compound: CN(c1ccc(OC(F)(F)F)cc1)c1nc(Cl)nc2ccn(C)c12 [Table 3a 29]
